# According to ChEMBL document CHEMBL3414439, “Design, synthesis and biological evaluation of piperic acid triazolyl derivatives as potent anti-inflammatory agents” (Eur J Med Chem, 2015):
# Activity calls are given as the source filed them. The rule behind the calls is not given here.
# Legend:
# [1] = tested on: RAW264.7; assay: Antiinflammatory activity against mouse RAW264.7 cells assessed as inhibition of LPS-induced TNFalpha level at 20 uM after 24 hrs by ELISA relative to untreated control; assay type: functional; conditions: RAW264.7, 24 h
# [2] = tested on: Rattus norvegicus; assay: Antiinflammatory activity in rat assessed as inhibition of carrageenan-induced paw volume at 20 mg/kg, po administered 1 hr prior to carrageenan challenge measured after 3 hrs relative to vehicle-treated control; assay type: functional
# [3] = tested on: Rattus norvegicus; assay: Ulcerogenic effect in Albino Wistar rat assessed as damage in gastric mucosa at 60 mg, po after 5 hrs; assay type: toxicity, organism-based; conditions: in vivo
# [4] = tested on: Rattus norvegicus; assay: Antiinflammatory activity in rat assessed as inhibition of carrageenan-induced paw volume at 20 mg/kg, po administered 1 hr prior to carrageenan challenge measured after 5 hrs relative to vehicle-treated control; assay type: functional
# [5] = tested on: Rattus norvegicus; assay: Antiinflammatory activity in rat assessed as inhibition of carrageenan-induced paw volume at 20 mg/kg, po administered 1 hr prior to carrageenan challenge measured after 3 hrs (reference value: 1.68 +/- 0.029 ml); assay type: functional
# [6] = tested on: Rattus norvegicus; assay: Antiinflammatory activity in rat assessed as inhibition of carrageenan-induced paw volume at 20 mg/kg, po administered 1 hr prior to carrageenan challenge measured after 5 hrs (reference value: 1.70 +/- 0.020 ml); assay type: functional
# [7] = Cytotoxicity against mouse RAW264.7 cells assessed as cell viability at 20 uM after 24 hrs by MTT assay; assay type: cell-based; conditions: read-out: Activity
# [8] = tested on: Mus musculus; assay: Analgesic activity in Swiss Albino acetic acid-induced writhing mouse model assessed as protection at 20 mg/kg, po administered 30 mins before to acetic acid challenge measured for 10 mins; assay type: functional
# [9] = Inhibition of carrageenan-induced COX-2 expression in paw tissue (unknown origin) by immunohistochemistry; assay type: functional
# [10] = tested on: Mus musculus; assay: Analgesic activity in Swiss Albino acetic acid-induced writhing mouse model assessed as number of writhes at 20 mg/kg, po administered 30 mins before to acetic acid challenge measured for 10 mins (reference value: 92.8 +/- 1.49); assay type: functional
# [11] = Inhibition of carrageenan-induced NFkappaB expression in paw tissue (unknown origin) by immunohistochemistry; assay type: functional
# [12] = Inhibition of carrageenan-induced TNFalpha expression in paw tissue (unknown origin) by immunohistochemistry; assay type: functional
# [13] = Reduction in carrageenan-induced lipid peroxidation in gastric mucosa tissue (unknown origin) assessed as MDA after 30 mins; assay type: functional, tissue-based
Compound,inhibition at 20 µM [1],inhibition in vivo at 20 mg/kg [2],Activity [3],inhibition in vivo at 20 mg/kg [4],Activity [5],Activity [6],"viability at 24 h, 20 µM [7]",Activity [8],inhibition [9],Activity [10],inhibition [11],inhibition [12],inhibition [13]
O=C(/C=C/C=C/c1ccc2c(c1)OCO2)N1CCCCC1 [PIPERINE],49.7%,53.7%,Non-toxic,54.7%,0.676 mL,0.67 mL,–,–,–,–,–,–,–
O=C(/C=C/C=C/c1ccc2c(c1)OCO2)OCc1cn(-c2ccc([N+](=O)[O-])cc2)nn1,–,19.6%,–,22.1%,1.39 mL,1.37 mL,–,–,–,–,–,–,–
CCc1ccc(-n2cc(COC(=O)/C=C/C=C/c3ccc4c(c3)OCO4)nn2)cc1,–,57.5%,–,60%,0.83 mL,0.8 mL,–,–,–,–,–,–,–
O=C(/C=C/C=C/c1ccc2c(c1)OCO2)OCc1cn(-c2ccccc2)nn1,–,37%,–,38.5%,1.12 mL,1.11 mL,–,–,–,–,–,–,–
CCOc1ccc(-n2cc(COC(=O)/C=C/C=C/c3ccc4c(c3)OCO4)nn2)cc1,–,32.9%,–,36.5%,1.1 mL,1.14 mL,–,–,–,–,–,–,–
COc1ccccc1-n1cc(COC(=O)/C=C/C=C/c2ccc3c(c2)OCO3)nn1,–,61.6%,–,65%,0.76 mL,0.72 mL,–,–,–,–,–,–,–
O=C(/C=C/C=C/c1ccc2c(c1)OCO2)OCc1cn(-c2cccc(Cl)c2)nn1,–,64.7%,–,67.8%,0.71 mL,0.69 mL,–,–,–,–,–,–,–
O=C(/C=C/C=C/c1ccc2c(c1)OCO2)OCc1cn(-c2ccccc2Br)nn1,70.6%,76.1%,Non-toxic,80.4%,0.56 mL,0.51 mL,90%,54.09%,Active,42.6,Active,Active,Active
Cc1ccccc1-n1cc(COC(=O)/C=C/C=C/c2ccc3c(c2)OCO3)nn1,–,51.5%,–,54.6%,0.91 mL,0.88 mL,–,–,–,–,–,–,–
Cc1ccc(-n2cc(COC(=O)/C=C/C=C/c3ccc4c(c3)OCO4)nn2)cc1,–,46.2%,–,49.1%,1.01 mL,0.98 mL,–,–,–,–,–,–,–
Cc1ccc(-n2cc(COC(=O)/C=C/C=C/c3ccc4c(c3)OCO4)nn2)cc1C,–,67.9%,–,70.3%,0.68 mL,0.66 mL,–,44.93%,–,51.2,–,–,–
O=C(/C=C/C=C/c1ccc2c(c1)OCO2)OCc1cn(-c2ccccc2F)nn1,–,68.2%,–,70.8%,0.68 mL,0.65 mL,–,48.7%,–,45.8,–,–,–
O=C(/C=C/C=C/c1ccc2c(c1)OCO2)OCc1cn(-c2ccc(Br)cc2)nn1,–,53.6%,–,55.5%,0.89 mL,0.87 mL,–,–,–,–,–,–,–
O=C(/C=C/C=C/c1ccc2c(c1)OCO2)OCc1cn(-c2ccccc2Cl)nn1,73.7%,74.5%,Non-toxic,76.7%,0.58 mL,0.56 mL,90%,50.64%,Active,45.8,Active,Active,Active
O=C(/C=C/C=C/c1ccc2c(c1)OCO2)OCc1cn(-c2ccc(Cl)cc2)nn1,–,57.5%,–,59.7%,0.83 mL,0.81 mL,–,–,–,–,–,–,–
O=C(/C=C/C=C/c1ccc2c(c1)OCO2)OCc1cn(-c2ccc(F)cc2)nn1,–,55.5%,–,57%,0.87 mL,0.85 mL,–,–,–,–,–,–,–
COc1ccc(-n2cc(COC(=O)/C=C/C=C/c3ccc4c(c3)OCO4)nn2)cc1,–,54%,–,55.9%,0.88 mL,0.86 mL,–,–,–,–,–,–,–
O=C(/C=C/C=C/c1ccc2c(c1)OCO2)OCc1cn(-c2cccc([N+](=O)[O-])c2)nn1,–,15.6%,–,15.4%,1.44 mL,1.46 mL,–,–,–,–,–,–,–
COc1ccc2c(c1)c(CC(=O)O)c(C)n2C(=O)c1ccc(Cl)cc1 [INDOMETHACIN],68%,72%,Toxic,77%,0.608 mL,0.54 mL,55%,57.43%,Active,39.4,Active,Active,–
O=C(/C=C/C=C/c1ccc2c(c1)OCO2)OCc1cn(-c2ccc(Cl)c(Cl)c2)nn1,63.6%,69.6%,Non-toxic,73%,0.632 mL,0.588 mL,90%,50%,–,46.4,–,–,Active
O=C(/C=C/C=C/c1ccc2c(c1)OCO2)OCc1cn(-c2ccc(Cl)cc2Cl)nn1,60.7%,69.3%,Non-toxic,71.2%,0.64 mL,0.622 mL,90%,45.04%,–,51,–,–,Active
